From US9173877B1, “Compositions and methods for the treatment of local pain” (CELLIX BIO PRIVATE LIMITED, priority 2014, dated 2015)

Assay: Pharmacokinetic evaluation of Bupivacaine (BU) and Formula I (1-1) in Sprague-Dawley rats (blood and brain concentrations)
Assay type: in vivo
Settings: rat, male Sprague-Dawley rats, intravenous, 3 mg/kg, n=5
Protocol: Male specific pathogen-free Sprague-Dawley rats weighing 300-350 g were obtained from the Laboratory. The animals had free access to food and water. The rat was anaesthetized with urethane 1.0 g/mL and chloralose 0.1 g/mL (1 mL/kg, i.p.) before surgery. The femoral vein was cannulated for further drug administration, and the rat's body temperature was maintained by heating pad during the experiment. All rats remained anaesthetized during the experimental period over which the Formula I (1-1) and BU concentrations in blood, brain and bile were monitored, and they were euthanized by overdose CO2 under the anaesthetic after the experimental endpoint.
Bupivacaine (3 mg/mL) was prepared in 0.9%(w/v) sodium chloride. Formula I (1-1) equivalent of BU 3 mg/mL. Rats were divided into the following groups (n=5 for each group) and received drugs intravenously: group 1 treated with (20 mg/kg) 10 min before BU (3 mg/kg) administration, group 2 treated with Formula I (1-1) (3 mg/kg).
The chromatographic system consisted of a PM-80 chromatographic pump (BAS, West Lafayette, Ind., USA), an off-line injector (CMA/140, Stockholm, Sweden) equipped with a […] sample loop injector (Rheodynemodel7125) and a UV-Vis detector (Soma, Tokyo, Japan) that operated at room temperature (25±2° C.). Separation was achieved on a LiChrosphere60RP-select B column (4.6 mm×250 mm, […], Merck). The mobile phase for plasma, brain homogenate, blood dialysate and brain dialysate was comprised of 10 mM potassium dihydrogenphosphate-acetonitrile-triethylamine (67:33:0.01), adjusted to pH4.3 with H3PO4. The mobile phase for bile dialysate consisted of 10 mM potassium dihydrogen phosphate-acetonitrile-triethylamine (60:40:0.01), adjusted to pH6.0 with H3PO4. The flow rate was set at 1.0 mL/min for both mobile phases.

AUC (Blood): 1370 ng·h/mL
half-life (Blood): 4 ± 2 min
AUC (Brain): 250 ng·h/mL
Cmax (Brain): 560 ± 130 ng/mL
Structure (SMILES): CCCCN1CCCCC1C(=O)Nc1c(C)cccc1C (stereo not shown) [BU, Bupivacaine]
